Source: US11136562B2, “Conditionally active heterodimeric polypeptides and methods of use thereof” (The Regents of the University of California, priority 2016, dated 2021)

Assays:
[1] = system: primary CD8+ T cells expressing a split ON-switch CAR (human Vitamin D receptor ligand binding domain / SRC2-3 coactivator peptide); experiment: T cell activation of primary CD8+ T cells expressing a split ON-switch CAR with human Vitamin D receptor LBD and SRC2-3 coactivator peptide; format: cell-based; conditions: in the presence of the dimerizer
ER CAR+ Jurkat cells = experiment: CD69 upregulation by ER CAR+ Jurkat cells (bCW502 and bCW505) co-cultured with K562 target cells; format: cell-based, human
Method: A Jurkat cell line expressing Green Fluorescent Protein upon NFAT activation was used. The cell line was maintained in RPMI-1640 medium supplemented with 10% FBS and glutamine. K562 target cells (CD19+/−) were cultured in DMEM supplemented with 10% FBS. Jurkat cells infected with lentivirus with the CAR constructs were co-cultured with K562 target cells that expressed the target antigen (CD19) or an irrelevant antigen (mesothelin). 4-Hydroxytamoxifen (Sigma-Aldrich #H7904) was dissolved in DMSO and added to samples to a final concentration of 0-10 μM. The Rapalog A/C Heterodimerizer (Clontech Laboratories #635055) was dissolved in ethanol and added to a final concentration of 500 nM. The cells were cultured for 24 hours, stained for CD69 expression, and analyzed on a flow cytomter.
The data are depicted in FIG. 16A and FIG. 16B. FIG. 16A. CD69 upregulation by Jurkat cells expressing ER CAR+ (bCW502 and bCW505) after 24 hours of co-culturing with K562 target cells expressing CD19 or mesothelin, an irrelevant antigen (“meso”), in the presence or absence of a small-molecule dimerizer (4-hydroxytamoxifen or rapalog AP21967). […] Rapamycin CAR and dead rapamycin CAR (with a mutation in ITAM that abolishes signalling) were tested as positive and negative controls, respectively. FIG. 16B. […]

[2] = system: primary human CD8+ T cells expressing a CD19 specific ER-beta/CoRNR ON-switch CAR; experiment: CD69 upregulation by primary human CD8+ T cells expressing ER-beta/CoRNR ON-switch CAR co-cultured with K562 target cells; format: cell-based; conditions: 24 hours co-culture with K562 cells expressing CD19, 4-hydroxytamoxifen 0-10 μM
Excerpt: A human estrogen receptor beta nuclear receptor-peptide system was expressed in primary human T cells and found to capable of modulating ON-switch CAR activity. A CD19 specific ON-switch CAR was constructed to include human estrogen receptor beta ligand binding domain and co-repressor peptide (CoRNR). A schematic representation of the general construct within the T cell membrane, and the associated CD19 antigen expressed on the surface of the target cell, is provided in FIG. 17.
Specifically, CD69 upregulation by primary human CD8+ T cells expressing a CD19 specific ON-switch CAR constructed to include human estrogen receptor beta ligand binding domain (ER-beta) and co-repressor peptide (CoRNR) was measured after 24 hours of co-culturing with K562 target cells expressing CD19 or mesothelin, an irrelevant antigen (“meso”), in the presence or absence of a small-molecule dimerizer (4-hydroxytamoxifen or rapalog “rapa”).

[3] = system: CD19-expressing K562 target cells; experiment: Target cell killing by primary human CD8+ T cells expressing the CD19 specific ER-beta/CoRNR ON-switch CAR; format: cell-based; conditions: 22 hours co-culture; percent of CD19-expressing K562 target cells remaining; various drug concentrations
Method: Cell killing by primary human CD8+ T cells expressing the CD19 specific ER-beta/CoRNR ON-switch CAR was also assessed. Specifically, the percent of CD19-expressing K562 target cells remaining after 22 hours of co-culture with primary human CD8+ T cells expressing the CD19 specific ER-beta/CoRNR ON-switch CAR (ER-CAR) in the presence of various concentrations of drug (4-hydroxytamoxifen (4HT) or rapalog) was measured (FIG. 52). Cells expressing a CD19 specific single-chain second generation CAR (“2nd gen CAR”) and cells expressing a CD19 specific rapalog on-switch CAR, with administered rapalog dimerizer, were used as positive controls. Negative controls included cells expressing ER-CAR T cells in absence of 4HT (ethanol vehicle only, “ER-CAR+EtOH”) and cells expressing only part 2 of the ER-CAR on-switch construct, i.e., without part 1, in the presence of 4HT.

| EC50 (ER CAR+ Jurkat cells; 24 hours co-culture with K562 cells expressing CD19, flow cytometry, read-out: EC50 of CD69 expression induction) [nM] | Molecule | T cell activation [1] | CD69 expression in ER CAR+ Jurkat cells (ER CAR+ Jurkat cells; 24 hours co-culture, only in the presence of K562 cells expressing CD19, not the irrelevant antigen mesothelin) | T cell activation (CD69 upregulation) of primary human CD8+ T cells [2] | T cell activation (CD69 upregulation) of primary human CD8+ T cells ([2]; listed as 4-hyroxytamoxifen) | target cell killing (cytotoxic activity) [3] |
| --- | --- | --- | --- | --- | --- | --- |
|  | C=C1/C(=C\C=C2/CCC[C@]3(C)[C@@H]([C@H](C)/C=C/[C@@H](O)C4CC4)CC[C@@H]23)C[C@@H](O)C[C@@H]1O [calcipotriol] | increased activation |  |  |  |  |
| ~100 | 4-Hydroxytamoxifen |  | strongly induced | increasing numbers of CD69 positive primary human CD8+ T cells | increased T cell activation | inducible target cell killing |
